Source: patent publication US20200199127A1, “(HETERO)ARYLALKYLAMINO-PYRAZOLOPYRIDAZINE DERIVATIVES HAVING MULTIMODAL ACTIVITY AGAINST PAIN” (priority 2017, published 2020)

Columns and labels:
[1] = target: Human α2δ-1 subunit of Cav2.2 calcium channel (Homo sapiens, UniProt P54289); test: Human α2δ-1 subunit of Cav2.2 calcium channel assay, [3H]-Gabapentin binding; settings: human α2δ-1 enriched membranes, 15 nM [3H]-Gabapentin; Ki as class symbol
Method: Human α2δ-1 Subunit of Cav2.2 Calcium Channel Assay
Human α2δ-1 enriched membranes (2.5 μg) were incubated with 15 nM of radiolabeled [3H]-Gabapentin in assay buffer containing Hepes-KOH 10 mM, pH 7.4. NSB (non specific binding) was measured by adding 10 μM pregabalin. The binding of the test compound was measured at five different concentrations. After 60 min incubation at 27° C., binding reaction was terminated by filtering through Multiscreen GF/C (Millipore) presoaked in 0.5% polyethyleneimine in Vacuum Manifold Station, followed by 3 washes with ice-cold filtration buffer containing 50 mM Tris-HCl, pH 7.4. Filter plates were dried at 60° C. for 1 hour and 30 μl of scintillation cocktail were added to each well before radioactivity reading. Readings were performed in a Trilux 1450 Microbeta radioactive counter (Perkin Elmer).

[2] = target: Human norepinephrine transporter (NET) (Homo sapiens, UniProt P23975); test: Binding assay to human norepinephrine transporter (NET), [3H]-Nisoxetin; settings: human NET enriched membranes, 5 nM [3H]-Nisoxetin; Ki as class symbol
Chain of Human norepinephrine transporter (NET) (P23975 whole entry): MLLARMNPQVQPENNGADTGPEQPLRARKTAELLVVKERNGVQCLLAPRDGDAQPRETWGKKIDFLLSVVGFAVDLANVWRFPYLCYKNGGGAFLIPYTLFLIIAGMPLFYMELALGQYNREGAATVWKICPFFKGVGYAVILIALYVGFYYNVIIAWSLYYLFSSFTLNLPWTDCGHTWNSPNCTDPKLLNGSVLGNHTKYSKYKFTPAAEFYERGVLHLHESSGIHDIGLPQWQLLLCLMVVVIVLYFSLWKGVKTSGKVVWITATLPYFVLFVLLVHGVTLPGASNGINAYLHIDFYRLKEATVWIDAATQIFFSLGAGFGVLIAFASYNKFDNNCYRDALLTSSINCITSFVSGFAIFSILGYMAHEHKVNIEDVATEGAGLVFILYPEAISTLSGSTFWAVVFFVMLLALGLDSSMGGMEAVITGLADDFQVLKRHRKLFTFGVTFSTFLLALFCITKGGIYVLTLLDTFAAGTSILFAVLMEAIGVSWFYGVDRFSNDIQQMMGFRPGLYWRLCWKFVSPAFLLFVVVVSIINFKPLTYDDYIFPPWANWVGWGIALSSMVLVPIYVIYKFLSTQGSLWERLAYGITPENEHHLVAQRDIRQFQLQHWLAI

Chain of Human α2δ-1 subunit of Cav2.2 calcium channel (P54289 25-1103): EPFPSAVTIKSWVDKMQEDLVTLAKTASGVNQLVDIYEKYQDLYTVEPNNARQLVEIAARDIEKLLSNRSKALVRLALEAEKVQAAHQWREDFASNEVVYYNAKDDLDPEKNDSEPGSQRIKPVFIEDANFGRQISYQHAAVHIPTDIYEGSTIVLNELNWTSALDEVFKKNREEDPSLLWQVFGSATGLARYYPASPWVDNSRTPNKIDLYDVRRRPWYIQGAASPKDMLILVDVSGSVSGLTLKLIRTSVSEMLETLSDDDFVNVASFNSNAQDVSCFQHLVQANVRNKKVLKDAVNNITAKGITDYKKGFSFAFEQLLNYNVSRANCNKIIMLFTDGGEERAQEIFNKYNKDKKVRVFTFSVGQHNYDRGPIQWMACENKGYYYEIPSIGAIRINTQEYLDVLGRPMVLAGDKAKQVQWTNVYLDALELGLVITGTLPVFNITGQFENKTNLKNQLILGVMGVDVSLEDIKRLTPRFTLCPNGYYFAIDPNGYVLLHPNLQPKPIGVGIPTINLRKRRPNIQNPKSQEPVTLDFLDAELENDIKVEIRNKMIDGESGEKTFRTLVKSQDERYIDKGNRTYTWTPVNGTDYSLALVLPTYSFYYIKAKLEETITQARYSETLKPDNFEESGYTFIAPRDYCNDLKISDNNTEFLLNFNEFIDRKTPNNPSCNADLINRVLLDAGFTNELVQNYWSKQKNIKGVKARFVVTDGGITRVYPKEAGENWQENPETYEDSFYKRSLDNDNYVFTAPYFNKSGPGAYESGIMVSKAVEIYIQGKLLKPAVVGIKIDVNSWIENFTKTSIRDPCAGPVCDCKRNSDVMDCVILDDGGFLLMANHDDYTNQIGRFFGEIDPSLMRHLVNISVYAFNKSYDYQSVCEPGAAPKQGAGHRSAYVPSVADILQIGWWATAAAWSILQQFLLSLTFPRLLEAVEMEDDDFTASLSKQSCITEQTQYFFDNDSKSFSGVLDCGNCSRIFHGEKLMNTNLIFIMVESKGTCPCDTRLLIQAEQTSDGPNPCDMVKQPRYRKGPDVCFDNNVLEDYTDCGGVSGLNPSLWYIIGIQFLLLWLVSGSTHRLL

| SMILES | Ki [1] [nM] | Ki [2] [nM] |
| --- | --- | --- |
| CCOc1ccc(-n2nc3c(N(C)Cc4ncccc4F)nnc(C)c3c2C)c(F)c1 [Example 33, 2-(4-ethoxy-2-fluorophenyl)-N-((3-fluoropyridin-2-yl)methyl)-N,3,4-trimethyl-2H-pyrazolo[3,4-d]pyridazin-7-amine] | 100 to 500 | 100 to 500 |
| CCOc1ccc(-n2nc3c(N(C)CCc4ccccc4)nnc(C)c3c2C)c(F)c1 [Example 3, 2-(4-ethoxy-2-fluorophenyl)-N,3,4-trimethyl-N-phenethyl-2H-pyrazolo[3,4-d]pyridazin-7-amine] | 100 to 500 | 100 to 500 |
| CCOc1ccc(-n2nc3c(N(C)Cc4ncccn4)nnc(C)c3c2C)c(F)c1 [Example 26, 2-(4-ethoxy-2-fluorophenyl)-N,3,4-trimethyl-N-(pyrimidin-2-ylmethyl)-2H-pyrazolo[3,4-d]pyridazin-7-amine] | 100 to 500 | > 1000 |
| CCOc1ccc(-n2nc3c(N(C)Cc4cccc(OC)n4)nnc(C)c3c2C)c(F)c1 [Example 30, 2-(4-ethoxy-2-fluorophenyl)-N-((6-methoxypyridin-2-yl)methyl)-N,3,4-trimethyl-2H-pyrazolo[3,4-d]pyridazin-7-amine] | 100 to 500 | 500 to 1000 |
| CCOc1ccc(-n2nc3c(N(CCO)Cc4ccncc4)nnc(C)c3c2C)c(F)c1 [Example 53, 2-((2-(4-Ethoxy-2-fluorophenyl)-3,4-dimethyl-2H-pyrazolo[3,4-d]pyridazin-7-yl)(pyridin-4-ylmethyl)amino)ethanol] | ≥ 5000 | > 1000 |
| CCOc1ccc(-n2nc3c(N(C)CCC(N)c4ccccc4)nnc(C)c3c2C)c(F)c1 (stereo not shown) [Example 39, N1-(2-(4-ethoxy-2-fluorophenyl)-3,4-dimethyl-2H-pyrazolo[3,4-d]pyridazin-7-yl)-N1-methyl-3-phenylpropane-1,3-diamine] | ≥ 5000 | 500 to 1000 |
| Cc1nnc(N(C)Cc2ccccn2)c2nn(-c3ccc(O)cc3)c(C)c12 [Example 47, 4-(3,4-dimethyl-7-(methyl(pyridin-2-ylmethyl)amino)-2H-pyrazolo[3,4-d]pyridazin-2-yl)phenol] | ≥ 5000 | > 1000 |
| CCOc1ccc(-n2nc3c(NCc4ccccn4)nnc(C)c3c2C)c(F)c1 [Example 14, 2-(4-ethoxy-2-fluorophenyl)-3,4-dimethyl-N-(pyridin-2-ylmethyl)-2H-pyrazolo[3,4-d]pyridazin-7-amine] | 100 to 500 | > 1000 |
